Experimental data reported in publication PMC10298474 (2023).

Test system: Cy5-labeled 16 bp WC-helix (RNA, duplex) AGAGGGAAUUCCCUCU
Experiment: microscale thermophoresis
Conditions: 100 mM K+, 2 mM Mg2+; 10 mM HEPES pH 7.5, 0.5 mM EDTA, 0.1% Tween 20, 25 °C; 50 nM RNA; single-site fit

Structure (SMILES): C[C@@H]1O[C@@H](OC[C@H]2O[C@@H](Oc3c(-c4ccc(O)c(O)c4)oc4cc(O)cc(O)c4c3=O)[C@H](O)[C@@H](O)[C@@H]2O)[C@H](O)[C@H](O)[C@H]1O
- KD: < 0.1 nM
